Assay results published in patent US9480679B2, “Methods for treating malaria, tuberculosis and MAC diseases” (priority 2009, dated 2016).
≈ marks a conversion by molar mass, not a printed value. Where “and” joins values, the source holds several entries; their conditions need not be identical. Equal values may be shown once. Read-outs that look alike come from different tables or passages of the source.

Key:
[1] = system: M. avium complex; assay: Broth dilution MIC versus M. avium complex isolates; type: cell-based, Mycobacterium avium; conditions: Mycobacterium avium, read-out: MIC
[2] = system: MTb growing inside macrophages; assay: MTb inside infected macrophages, ATP readout; type: cell-based, M. tuberculosis; conditions: 1 μg/mL
[3] = system: replicating M. tuberculosis; assay: Microplate Alamar Blue Assay (MABA), replicating culture; type: cell-based; conditions: two experiments
[4] = system: P. falciparum lines Dd2 and 7G8 and azithromycin-resistant lines; assay: Fidock lab 96 hours assay on P. falciparum lines; type: cell-based
Text: EXAMPLE. CEM101 is active when tested against Azi resistant strain (Fidock).

[5] = type: in vitro ADME; conditions: 24 h
Experimental: EXAMPLE. Intracellular activity of CEM-101. […] After 24 hours, the intracellular concentration of CEM-101 was more than 2-fold higher than any of azithromycin, clarithromycin, and telithromycin, in decreasing order of ability for intracellular accumulation. CEM-101 intracellular accumulation was dose dependent.

Compound: CC[C@H]1OC(=O)[C@@](C)(F)C(=O)[C@H](C)[C@@H](O[C@@H]2O[C@H](C)C[C@H](N(C)C)[C@H]2O)[C@](C)(OC)C[C@@H](C)C(=O)[C@H](C)[C@H]2N(CCCCn3cc(-c4cccc(N)c4)nn3)C(=O)O[C@]12C [CEM-101, solithromycin]
- MIC ([1]; isolate MAC 101, clarithromycin susceptible): 0.25 µg/mL (≈ 0.296 µM)
- MIC ([1]; isolate MAC 103, clarithromycin resistant): 8 µg/mL (≈ 9.47 µM)
- MIC ([1]; isolate MAC 108, clarithromycin resistant): 8 µg/mL (≈ 9.47 µM)
- MIC ([1]; isolate MAC 110, clarithromycin resistant): 8 µg/mL (≈ 9.47 µM)
- MIC ([1]; isolate MAC 216, clarithromycin resistant): 8 µg/mL (≈ 9.47 µM)
- MIC ([1]; isolate MAC 224, clarithromycin resistant): 8 µg/mL (≈ 9.47 µM)
- MIC ([1]; isolate MAC 309, clarithromycin resistant): 8 µg/mL (≈ 9.47 µM)
- MIC ([1]; isolate MAC 320, clarithromycin resistant): 8 µg/mL (≈ 9.47 µM)
- MIC ([1]; isolate MAC 621, clarithromycin resistant): 16 µg/mL (≈ 18.9 µM)
- MIC ([1]; isolate MAC 623, clarithromycin resistant): 16 µg/mL (≈ 18.9 µM)
- MIC ([1]; isolate MAC 625, clarithromycin resistant): 8 µg/mL (≈ 9.47 µM)
- MIC ([1]; isolate MAC 643, clarithromycin resistant): 8 µg/mL (≈ 9.47 µM)
- MIC ([1]; isolate MAC 1408, clarithromycin susceptible): 0.25 µg/mL (≈ 0.296 µM)
- MIC ([1]; isolate MAC 3404.4, clarithromycin susceptible): 0.125 µg/mL (≈ 0.148 µM)
- MIC ([1]; isolate MAC 9141, clarithromycin susceptible): 1 µg/mL (≈ 1.18 µM)
- MIC ([1]; isolate MAC FAR, clarithromycin susceptible): 0.125 µg/mL (≈ 0.148 µM)
- MIC ([1]; isolate MAC GRL, clarithromycin susceptible): 8 µg/mL (≈ 9.47 µM)
- MIC ([1]; isolate MAC KAL, clarithromycin susceptible): 16 µg/mL (≈ 18.9 µM)
- MIC ([1]; isolate MAC KZL, clarithromycin susceptible): 8 µg/mL (≈ 9.47 µM)
- MIC ([1]; isolate MAC LPR (control strain)): 8 µg/mL (≈ 9.47 µM)
- MIC ([1]; isolate MAC Pry, clarithromycin resistant): 8 µg/mL (≈ 9.47 µM)
- MIC ([1]; isolate MAC SMT, clarithromycin susceptible): 0.125 µg/mL (≈ 0.148 µM)
- MIC ([1]; isolate MAC TEL, clarithromycin susceptible): 8 µg/mL (≈ 9.47 µM)
- MIC ([1]; isolate MAC TRY, clarithromycin susceptible): 8 µg/mL (≈ 9.47 µM)
- decrease in ATP of MTb released from infected treated cells [2]: 10 fold
- MIC ([3]; Mycobacterium tuberculosis): 9.23 µM (≈ 7.8 µg/mL)
- MIC [3]: 9.17 µM (≈ 7.75 µg/mL)
- IC50 ([4]; Plasmodium falciparum, 96 h, line 7G8 (multidrug resistant), 96 hours, read-out: Mean IC50): 18.5 nM
- IC50 ([4]; Plasmodium falciparum, 96 h, line AZR 7G8-R1, 96 hours, read-out: Mean IC50): 80.2 nM
- IC50 ([4]; Plasmodium falciparum, 96 h, line AZR Dd2-R2, 96 hours, runs 1-3, read-out: IC50): 73.2 nM
- IC50 ([4]; Plasmodium falciparum, 96 h, line AZR Dd2-R2, 96 hours, read-out: Mean IC50): 69.1 nM
- IC50 ([4]; Plasmodium falciparum, 96 h, line Dd2 (multidrug resistant), 96 hours, read-out: Mean IC50): 38.6 nM
- IC50 ([4]; line AZR Dd2-R2, 96 hours, runs 1-3, read-out: IC50): 64.5 nM and 69.7 nM
- intracellular concentration relative to azithromycin, clarithromycin and telithromycin [5]: more than 2 fold
